Assay results: article PMC11352469, “Comprehensive Analysis of Kisspeptin Signaling: Effects on Cellular Dynamics in Cervical Cancer” (Biomolecules, 2024)
Residues, ends and D or L forms follow the SMILES beside them.

Assays:
kisspeptin receptor [1] = target: T1, kisspeptin receptor (Homo sapiens, UniProt Q969F8); test: BRET assay, Gz pathway; type: cell-based; design: expressed in transfected cells; host or cells: HeLa cells, transient transfection with PEI; conditions: for Emax / EC50 / Δ(logτ/KA) bias factor, Gαz pathway: HeLa cells; for Emax / EC50: Gz pathway; for Emax: KP10 = 100%; for Δ(logτ/KA) bias factor, Gαz pathway: operational model, KP10 as reference
T1 sequence (Q969F8 whole entry, the tested form may be a part): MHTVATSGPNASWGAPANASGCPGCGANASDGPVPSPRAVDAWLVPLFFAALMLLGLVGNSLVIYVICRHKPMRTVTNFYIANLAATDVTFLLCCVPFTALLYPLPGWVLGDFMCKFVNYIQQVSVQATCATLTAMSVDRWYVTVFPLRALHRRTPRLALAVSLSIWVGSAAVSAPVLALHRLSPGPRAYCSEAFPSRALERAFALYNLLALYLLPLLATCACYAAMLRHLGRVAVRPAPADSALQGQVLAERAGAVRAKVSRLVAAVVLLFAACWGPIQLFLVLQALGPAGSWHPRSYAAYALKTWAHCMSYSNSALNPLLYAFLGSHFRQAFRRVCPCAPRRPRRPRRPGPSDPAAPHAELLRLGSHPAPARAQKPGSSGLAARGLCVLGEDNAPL
Text: The Bioluminescence Resonance Energy Transfer (BRET) assay was developed as described before. Briefly, HeLa cells were transiently transfected with these plasmids encoding for the GPCR, Gα subunit, the G protein effectors tagged with the BRET donor (RlucII), and the plasma membrane anchor (the CAAX motif from KRas, which includes a prenylation and a polybasic domain) fused to the BRET acceptor rGFP using Polietilendiimine (PEI) as described in Avet et al.. Fourty-eight hours post-transfection, cells were incubated with the coelenterazine substrate for Renilla luciferase Prolume Purple, stimulated with kisspeptin receptor agonists for 10 min and BRET signals were measured using a dual-filter luminometer (SPARK, Tecan Life Sciences, Männedorf, Switzerland). BRET ratios were calculated by dividing the acceptor emission by the donor emission, providing a quantitative measure for […]. Data were analyzed using Prism 8.0 (GraphPad) to determine interaction dynamics under various experimental conditions. The bias factor for the kisspeptin analogs was calculated using the operational model of agonism as described by Kenakin [31]. Emax and EC50 values were determined for each signaling pathway (e.g., G protein activation, β-arrestin recruitment). The data were then fitted to the operational model to estimate transduction coefficients (τ). The bias factor (ΔLog(τ/KA)) was calculated by comparing the τ/KA values for each pathway relative to a reference pathway. This method quantifies signaling bias by evaluating relative efficacy and potency across pathways. Statistical significance of the observed bias was assessed to ensure the differences were not due to random variation. All calculations and analyses were performed using GraphPad Prism software (GraphPad, San Diego, CA, USA).

kisspeptin receptor [2] = target: T1, kisspeptin receptor; test: BRET assay, G11 pathway; type: cell-based; design: expressed in transfected cells; host or cells: HeLa cells, transient transfection with PEI; conditions: for Emax / EC50: HeLa cells, G11 pathway; for Emax: KP10 = 100%; for EC50: read-out: pEC50 G11 (converted)
Text: (§1) The Bioluminescence Resonance Energy Transfer (BRET) assay was developed as described before. Briefly, HeLa cells were transiently transfected with these plasmids encoding for the GPCR, Gα subunit, the G protein effectors tagged with the BRET donor (RlucII), and the plasma membrane anchor (the CAAX motif from KRas, which includes a prenylation and a polybasic domain) fused to the BRET acceptor rGFP using Polietilendiimine (PEI) as described in Avet et al.. Fourty-eight hours post-transfection, cells were incubated with the coelenterazine substrate for Renilla luciferase Prolume Purple, stimulated with kisspeptin receptor agonists for 10 min and BRET signals were measured using a dual-filter luminometer (SPARK, Tecan Life Sciences, Männedorf, Switzerland). BRET ratios were calculated by dividing the acceptor emission by the donor emission, providing a quantitative measure for […]. Data were analyzed using Prism 8.0 (GraphPad) to determine interaction dynamics under various experimental conditions.

kisspeptin receptor [3] = target: T1, kisspeptin receptor; test: BRET assay, β-arrestin1 recruitment; type: cell-based; design: expressed in transfected cells; host or cells: HeLa cells, transient transfection with PEI; conditions: for Emax / EC50: HeLa cells, β-arrestin1 recruitment; for Emax: KP10 = 100%; for EC50: mean of 4 experiments
Text: as §1

AGS cells = test: In vitro wound healing assay, AGS; type: cell-based, human; conditions: difference to control less marked
Protocol: (§2) Cells (3 × 10^5 cells/well) were seeded in 24-well plates for 24 h. Then, a sterile pipette tip of 20–200 μL was held vertically to create a cross-shaped scratch in each well. The detached cells were carefully removed by washing with 500 μL PBS and shaking at 500 rpm for 5 min. Then, 500 μL of medium containing the peptides to be tested was added to each well and incubated for 72 h. Prior taking each image, the plate was washed with 500 μL of PBS and gently shaken for 30 s. Then, 500 μL of medium containing the corresponding peptides was added to each well again and images were taken at 24 h intervals using a Primovert microscope at 4× magnification and 1/3700 s exposure time. Wound opening areas were obtained using Prism 8.0 software (GraphPad).

kisspeptin receptor [4] = target: T1, kisspeptin receptor; test: BRET assay, Gq pathway; type: cell-based; design: expressed in transfected cells; host or cells: HeLa cells, transient transfection with PEI; conditions: for EC50 / Emax: HeLa cells, Gq pathway; for Emax: KP10 = 100%
Text: as §1

PC3 cells [5] = test: Cytotoxicity MTT assay, PC3; type: cell-based, human; conditions: 48 h
Protocol: (§3) Human cervical adenocarcinoma (HeLa) cells (cat# CRM-CCL-2) were obtained from the American Type Culture Collection (ATCC, Manassas, VA, USA). Human breast adenocarcinoma (MCF7) cells, Human prostate adenocarcinoma (PC3) cells, Human gastric adenocarcinoma (AGS) cells and Human Embryonic Kidney cells (HEK293T) were kindly provided by the Universidad Industrial de Santander. HeLa, MCF7, and HEK293T cells were cultured in DMEM medium supplemented with 10% FBS (fetal bovine serum), 1% penicillin/streptomycin. PC3 and AGS cells were cultured in RPMI medium supplemented with 10% FBS, 1% penicillin/streptomycin. All cells were maintained at 37 °C and 5% CO2.
(§4) 15,000 cells per well were plated in 96-well plates (Greiner, Fisher Scientific, Waltham, MA, USA) using a fully complemented medium, and incubated at 37 °C. Following a 24 h period, cells underwent serum starvation before being treated with KP10 and its analogs at concentrations of 10, 100, 250, and 500 nM for 48 h. Subsequently, each well received 100 µL of MTT solution (0.5 mg/mL), and the plates were incubated at 37 °C for 3 h. After adding the MTT solvent and further incubation for 15 min, the resultant absorbance was measured at 590 nm using a BioTech RT-2100C microplate reader. Data analysis was performed using Prism 8.0 software (GraphPad).

HeLa cells [6] = test: In vitro wound healing assay, HeLa; type: cell-based, human; conditions: particularly at 48 and 72 h
Protocol: as §2

kisspeptin receptor [7] = target: T1, kisspeptin receptor; test: BRET assay, G15 pathway; type: cell-based; design: expressed in transfected cells; host or cells: HeLa cells, transient transfection with PEI; conditions: for Emax / EC50: HeLa cells, G15 pathway; for Emax: KP10 = 100%; for EC50: read-out: pEC50 G15 (converted)
Text: as §1

kisspeptin receptor [8] = target: T1, kisspeptin receptor; test: BRET assay, β-arrestin2 recruitment; type: cell-based; design: expressed in transfected cells; host or cells: HeLa cells, transient transfection with PEI; conditions: for Emax / EC50: HeLa cells, β-arrestin2 recruitment; for Emax: KP10 = 100%
Text: as §1

MCF7 cells [9] = test: In vitro wound healing assay, MCF7; type: cell-based, human; conditions: MCF7, particularly at 48 and 72 h
Protocol: as §2

kisspeptin receptor [10] = target: T1, kisspeptin receptor; test: BRET assay, G14 pathway; type: cell-based; design: expressed in transfected cells; host or cells: HeLa cells, transient transfection with PEI; conditions: for Emax / EC50: HeLa cells, G14 pathway; for Emax: KP10 = 100%; for EC50: read-out: pEC50 G14 (converted)
Text: as §1

PC3 cells [11] = test: In vitro wound healing assay, PC3; type: cell-based, human; conditions: PC3, difference to control less marked
Protocol: as §2

HEK293T cells = test: Cytotoxicity MTT assay, HEK293T; type: cell-based, human; conditions: 48 h
Protocol: as §3, §4

HeLa cells [12] = test: Cytotoxicity MTT assay, HeLa; type: cell-based, human; conditions: 48 h
Protocol: as §3, §4

MCF7 cells [13] = test: Cytotoxicity MTT assay, MCF7; type: cell-based, human; conditions: 48 h
Protocol: as §3, §4

[14] = mean of 4 experiments, read-out: EC50(M) Gz
[15] = mean of 4 experiments, read-out: EC50(M) β-arrestin2
[16] = read-out: pEC50 β-arrestin2 (converted)

Emax (kisspeptin receptor [1]) [%] | EC50 (kisspeptin receptor [1]; [14]) [M] | EC50 (kisspeptin receptor [1]; read-out: pEC50 Gz (converted)) [M] | Δ(logτ/KA) bias factor, Gαz pathway (kisspeptin receptor [1]) | Emax (kisspeptin receptor [2]) [%] | EC50 (kisspeptin receptor [2]) [µM] | Emax (kisspeptin receptor [3]) [%] | EC50 (kisspeptin receptor [3]) [µM] | EC50 (kisspeptin receptor [4]) [µM] | Emax (kisspeptin receptor [4]) [%] | Emax (kisspeptin receptor [7]) [%] | EC50 (kisspeptin receptor [7]) [µM] | Emax (kisspeptin receptor [8]) [%] | EC50 (kisspeptin receptor [8]; [15]) [M] | EC50 (kisspeptin receptor [8]; [16]) [M] | Emax (kisspeptin receptor [10]) [%] | EC50 (kisspeptin receptor [10]) [µM] | Molecule | pIC50 PC3 (PC3 cells [5]) | further results
84.7 | 1.1e-06 | 9.12e-07 | −1.66 | 106 | 0.447 | 69.1 | 13 | 0.214 | 104 | 101 | 0.339 | 79 | 2.58e-06 | 2.51e-06 | 97.7 | 0.355 | CC(C)C[C@H](NC(=O)CNC(=O)[C@H](Cc1ccccc1)NC(=O)[C@H](CO)NC(=O)[C@H](C)NC(=O)[C@H](Cc1c[nH]c2ccccc12)NC(=O)[C@H](CC(N)=O)NC(=O)[C@@H](N)Cc1ccc(O)cc1)C(=O)N[C@@H](CCCNC(=N)N)C(=O)N[C@@H](Cc1ccccc1)C(N)=O [Ala^4-KP10] (H-YNWASFGLRF-NH2; N-terminus assumed) | 2.541 | migration inhibition (wound closure) (AGS cells): more inhibitory treatment; migration inhibition (wound closure) (HeLa cells [6]): most pronounced effects; migration inhibition (wound closure) (MCF7 cells [9]): most pronounced effects; migration inhibition (wound closure) (PC3 cells [11]): more inhibitory treatment
– | – | – | – | – | – | – | – | – | – | – | – | – | – | – | – | – | Ala^10-KP10: Tyr-Asn-Trp-Asn-Ser-Phe-Gly-Leu-Arg-Ala; KP10 Ala-scan analog (YNWNSFGLRA; printed: Tyr-Asn-Trp-Asn-Ser-Phe-Gly-Leu-Arg-Ala) | 1.739 | pIC50 HeLa (HeLa cells [12]): 2.493
94 | 6.46e-07 | 5.75e-07 | −0.7 | 102 | 0.209 | 69 | 1.19 | 0.0851 | 107 | 99.5 | 0.135 | 63.9 | 1.43e-06 | 1e-06 | 100 | 0.166 | CC(C)C[C@H](NC(=O)CNC(=O)[C@H](Cc1ccccc1)NC(=O)[C@H](CO)NC(=O)[C@H](CC(N)=O)NC(=O)[C@H](C)NC(=O)[C@H](CC(N)=O)NC(=O)[C@@H](N)Cc1ccc(O)cc1)C(=O)N[C@@H](CCCNC(=N)N)C(=O)N[C@@H](Cc1ccccc1)C(N)=O [Ala^3-KP10] (H-YNANSFGLRF-NH2; N-terminus assumed) | – | Fc Gz (kisspeptin receptor [1]; fold change of EC50 relative to KP10, Gz pathway): 3.96; pIC50 MCF7 (MCF7 cells [13]): 2.624; Fc G11 (kisspeptin receptor [2]; fold change of EC50 relative to KP10, G11 pathway): 4.65; Fc β-arrestin1 (kisspeptin receptor [3]; fold change of EC50 relative to KP10, β-arrestin1): 2.01; Fc Gq (kisspeptin receptor [4]; fold change of EC50 relative to KP10, Gq pathway): 5.76; Fc G15 (kisspeptin receptor [7]; fold change of EC50 relative to KP10, G15 pathway): 4.92; Fc β-arrestin2 (kisspeptin receptor [8]; fold change of EC50 relative to KP10, β-arrestin2): 3.82; Fc G14 (kisspeptin receptor [10]; fold change of EC50 relative to KP10, G14 pathway): 4.28

Molecule | Emax (kisspeptin receptor [1]) [%] | EC50 (kisspeptin receptor [1]; [14]) [M] | EC50 (kisspeptin receptor [1]; read-out: pEC50 Gz (converted)) [M] | Δ(logτ/KA) bias factor, Gαz pathway (kisspeptin receptor [1]) | Emax (kisspeptin receptor [2]) [%] | EC50 (kisspeptin receptor [2]) [µM] | Emax (kisspeptin receptor [3]) [%] | EC50 (kisspeptin receptor [3]) [µM] | EC50 (kisspeptin receptor [4]) [µM] | Emax (kisspeptin receptor [4]) [%] | Emax (kisspeptin receptor [7]) [%] | EC50 (kisspeptin receptor [7]) [µM] | Emax (kisspeptin receptor [8]) [%] | EC50 (kisspeptin receptor [8]; [15]) [M] | EC50 (kisspeptin receptor [8]; [16]) [M] | Emax (kisspeptin receptor [10]) [%] | EC50 (kisspeptin receptor [10]) [µM] | pIC50 PC3 (PC3 cells [5]) | further results
CC(C)C[C@H](NC(=O)CNC(=O)[C@H](Cc1ccccc1)NC(=O)[C@H](CO)NC(=O)[C@H](CC(N)=O)NC(=O)[C@H](Cc1c[nH]c2ccccc12)NC(=O)[C@H](CC(N)=O)NC(=O)[C@@H](N)Cc1ccc(O)cc1)C(=O)N[C@@H](CCCN=C(N)N)C(=O)N[C@@H](Cc1ccccc1)C(N)=O [KP-10, kisspeptin-10, reference compound] | – | 1.63e-07 | 1.35e-07 | 0 | – | 0.038 | – | – | 0.0135 | – | – | 0.0269 | – | – | 3.72e-07 | – | 0.0331 | 2.678 | pIC50 HEK293T (HEK293T cells): 2.489
